Experiments:
[1] = test system: BV173 cells (leukemia cells); experiment: Ventricular invasion mouse model (leukemic invasion of the central nervous system); assay type: in vivo, BRJ mice; conditions: HP-β-CyD 30 mg/kg
Protocol: Here, the effect of HP-β-CyD and FA-HP-β-CyD on leukemic central nervous system invasion was test by constructing a mouse model.
BRJ mice (female) were anesthetized (intraperitoneal administration (IP) of 100 μL of a triple anesthetic of medetomidine hydrochloride (0.75 mg/kg), mitazolam (4 mg/kg), and butorphanol tartrate (5 mg/kg)), and intrathecal transplantation was carried out, through the right coronal suture at a point 1 mm to the right of the center line defined by the sagittal suture, with a polyethylene stop tube-equipped microsyringe designed to inject BV173 cells (leukemia cells) precisely to a depth of 3 mm using a Hamilton syringe LT type needle tip style pst-3 and 25 gauge.
The FA-HP-β-CyD synthesized in Example 1 was used in this example.
The doses were set at 30 mg/kg for HP-β-CyD and 3 mg/kg for FA-HP-β-CyD by referring to the dose of HP-β-CyD for a mouse model of the hereditary lipid storage disease Niemann-Pick disease type C (NPC) (Int. J. Mol. Sci. 2021, 22, 452. https://doi.org/10.3390/ijms22010452).
(§1) Significant difference was determined as follows. That is, the data were analyzed using a two-sided Student's t-test without a comparison table. A value of P<0.05 was considered to indicate a significant difference.

MYL-R = experiment: Cell proliferation inhibition, modified MTT assay (Cell Counting Kit-8); assay type: cell-based; conditions: incubation for 72 hours, average±SD of 3 independent experiments
Protocol: (§2) The proliferation inhibitory action in leukemia cell lines was evaluated using a modified dimethyl-thiazole-diphenyl-tetrazolium (MTT) assay as follows.
(§3) The hepatocyte line and leukemia cell lines (K562, BV173, Ba/F3 p190, Ba/F3 p210, MYL-R, K562-IMR, and KBM5-STI) were used in this example. The FA-HP-β-CyD synthesized in Example 1 was used.
(§4) The cell viability was evaluated using the trypan blue dye exclusion method. Cell proliferation was evaluated using a Cell Counting Kit-8 (Dojindo, Japan), which is an MTT assay. 2×10^4 of each cell was seeded with 100 μL RPMI1640 medium (Sigma-Aldrich, USA) per well to a flatbottom 96-well plate (Greiner Labortechnik, Hamburg, Germany), and incubation for 72 hours was carried out with exposure to HP-β-CyD and FA-HP-β-CyD at different concentrations (0 mM (control: CT), 0.05 mM, 0.1 mM, 0.25 mM, 0.5 mM, and 1 mM).

K562-IMR = experiment: as above; assay type: cell-based; conditions: incubation for 72 hours, average±SD of 3 independent experiments
Protocol: as §2, §3, §4

BV173 [2] = experiment: as above; assay type: cell-based; conditions: BV173, incubation for 72 hours, average±SD of 3 independent experiments
Protocol: as §2, §3, §4

KBM5-STI = experiment: as above; assay type: cell-based; conditions: incubation for 72 hours, average±SD of 3 independent experiments
Protocol: as §2, §3, §4

K562 [3] = experiment: as above; assay type: cell-based; conditions: K562, incubation for 72 hours, average±SD of 3 independent experiments
Protocol: as §2, §3, §4

Ba/F3 P210 = experiment: as above; assay type: cell-based; conditions: Ba/F3 P210, incubation for 72 hours, average±SD of 3 independent experiments
Protocol: as §2, §3, §4

Ba/F3 P190 = experiment: as above; assay type: cell-based; conditions: Ba/F3 P190, incubation for 72 hours, average±SD of 3 independent experiments
Protocol: as §2, §3, §4

hepatocyte = experiment: as above; assay type: cell-based; conditions: hepatocyte line, incubation for 72 hours, average±SD of 3 independent experiments
Protocol: as §2, §3, §4

BV173 [4] = experiment: Effect of autophagy inhibition on the cell proliferation inhibitory effect; assay type: cell-based; conditions: 5 mM FA-HP-β-CyD or 15 mM HP-β-CyD, chloroquine, bafilomycin A1 or LY294002 (FIG. 8)
Protocol: (§5) The effect of autophagy inhibition on the cell proliferation inhibitory effect was evaluated as follows.
(§6) Leukemia cell lines (K562 and BV173) were used in this example. The FA-HP-β-CyD synthesized in Example 1 was used.
(§7) 2×10^5 of each cell with 100 μL RPMI1640 medium (Sigma-Aldrich, USA) was seeded per well to a flatbottom 96-well plate (Greiner Labortechnik, Hamburg, Germany), and treatment was carried out for 2 hours at 37° C. with 5 mM FA-HP-β-CyD and 15 mM HP-β-CyD. Pretreatment was then carried out for 24 hours with the autophagy inhibitors chloroquine (20 μM) (FUJIFILM Wako Pure Chemical Corporation), bafilomycin A1 (1 nM) (Funakoshi), or LY294002 (50 μM) (FUJIFILM Wako Pure Chemical Corporation). Cell proliferation was then evaluated using a Cell Counting Kit-8 (Dojindo, Japan), which is a modified dimethyl-thiazole-diphenyl-tetrazolium (MTT) assay.
(§8) Here, the “CT” in FIG. 8 was evaluated as follows. Thus, 2×10^5 of each cell with 100 μL RPMI1640 medium was seeded per well to a flatbottom 96-well plate and culture was carried out for 2 hours+24 hours as in the exposure groups, but without exposure to the agent or autophagy inhibitor, and this was used as the CT. This CT was compared with the exposure groups.
as §1

K562 [5] = experiment: as above; assay type: cell-based; conditions: 5 mM FA-HP-β-CyD or 15 mM HP-β-CyD, chloroquine, bafilomycin A1 or LY294002 (FIG. 8)
Protocol: as §5, §6, §7, §8, §1

A549 = experiment: Proliferation inhibitory action on low folate receptor-expressing cells (MTT assay); assay type: cell-based, human; conditions: A549, 2.5-10 mM, 72 hours (FIG. 3)
Protocol: The proliferation inhibitory action on A549, a low folate receptor-expressing cell, was evaluated as follows.
A human non-small cell lung cancer cell line (A549) was used in this example. The FA-HP-β-CyD synthesized in Example 1 was used.
For cell proliferation, 2×10^4 cells of the […] were seeded with 100 μL DMEM medium (Sigma-Aldrich, USA) per well to a flatbottom 96-well plate (Greiner Labortechnik, Hamburg, Germany), and incubation for 72 hours was carried out with exposure to HP-β-CyD and FA-HP-β-CyD at different concentrations (0 mM (control: CT), 2.5 mM, 5 mM, 7.5 mM, and 10 mM). Evaluation was then carried out using a dimethyl-thiazole-diphenyl-tetrazolium (MTT) assay (Nacalai Tesque, Japan).

BV173 [6] = experiment: Cellular uptake of TRITC-labelled CyD, confocal microscopy; assay type: cell-based; conditions: confocal microscopy (FIG. 6)
Protocol: The cellular uptake of FA-HP-β-CyD was evaluated as follows.
A leukemia cell line (BV173) was used in this example. The FA-HP-β-CyD synthesized in Example 1 was used.
10 mg HP-β-CyD or FA-HP-β-CyD and 1 mg of TRITC were dissolved in 400 μL of dimethyl sulfoxide (DMSO) with stirring for 24 hours and the solution was then gradually poured into acetone. A precipitate was obtained and was washed with water. This was freeze-dried to prepare TRITC-HP-β-CyD and TRITC-FA-HP-β-CyD.
The cells were then cultured at a cell density of 4×10e5 per well on a 6-well plate and were incubated with […], TRITC-HP-β-CyD, FA-HP-β-CyD, or HP-βCyD at different concentrations. A Zeiss LSM880 confocal microscope was used to observe the cells. Imaris (Zeiss) fluorescent image analysis software was used for analysis.
The Control refers to incubation at the same time as the other exposure groups, but without exposure to an agent. Cell localization was stained by DAPI and the cell membrane was stained with PlasMen Bright Green, and the cellular uptake of TRITC-FA-HP-β-CyD was evaluated using confocal microscopy.

In the case of “2-hydroxypropyl-β-cyclodextrin [HP-β-CyD, reference compound]”, the “survival in two-time administration model compared with one-time administration model” value ([1]; FIG. 14 compared with FIG. 13, FA-HP-β-CyD 3 mg/kg) is reported as “an extension in survival was not observed”, the “P versus the vehicle group (survival)” value ([1]; administered two times, first and second week, FA-HP-β-CyD 3 mg/kg (FIG. 14)) is reported as 0.182 and the “P versus the vehicle group (survival)” value ([1]; single administration in the second week, FA-HP-β-CyD 3 mg/kg (FIG. 13)) is reported as 0.0746. The IC50 (MYL-R) was 8.17 ± 0.15 mM, the IC50 (K562-IMR) was 3.51 ± 0.12 mM and the IC50 (BV173 [2]) was 3.46 ± 0.33 mM. It also gave an IC50 (KBM5-STI) of 6.64 ± 0.18 mM, an IC50 (K562 [3]) of 5.65 ± 0.96 mM and an IC50 (Ba/F3 P210) of 9.21 ± 0.054 mM. For the same substance, the IC50 (Ba/F3 P190) was 8.04 ± 0.71 mM, the IC50 (hepatocyte) was 12.9 ± 2.73 mM and the “cell proliferation inhibitory capability on addition of an autophagy inhibitor” value (BV173 [4]) was “such an effect is absent”. For the same substance, the “cell proliferation inhibitory capability on addition of an autophagy inhibitor” value (K562 [5]) was “such an effect is absent”, the “cytotoxic / antitumor activity on A549 low folate receptor-expressing cells” value (A549) was “strong cytotoxic activity” and the cellular uptake (BV173 [6]) was “almost no cellular intake”.
